Test results reported in patent US20050063903A1, “Combined use of cruciferous indoles and chelators for the treatment of papilloma virus-related conditions” (priority 2003, published 2005).

Tests used:
[1] = log cumulative stability constant; cited from earlier work
[2] = log cumulative stability constant; cited from earlier work; remark: listed apart in the source
Vaccinia virus = conditions: monkey kidney cells; cited from earlier work
[3] = log cumulative stability constant; cited from earlier work; remark: listed apart in the source
CaSki cells = assay: MTS mitochondrial function assay, loss of cell viability, 72 hour cultures; assay type: cell-based, human; conditions: for Pa Effect Alone: Pa 2.5 mM; for SY Effect Alone: SY 150 μM
Experimental: (§1) In vitro cell culture experiments were performed to investigate the induction of apoptosis by combinations of Diindolylmethane (DIM), Silybin (SY), Picolinic Acid (PA), Sodium Butyrate (BA), and Gallium Nitrate (Ga) in relevant cervical cancer cells. The cell lines CaSki (containing multiple copies of integrated HPV16 DNA), C33A (HPV negative with mutant p53), were utilized. Cells were maintained and assays for apoptosis induction performed as previously described (Chen D Z, Qi M, Auborn K J and Carter T H, Indole-3-carbinol and diindolylmethane induce apoptosis of human cervical cancer cells and in murine HPV 16-transgenic preneoplastic cervical epithelium. J Nutr. 2001 December;131(12):3294-302). Novel combinations of DIM and various Iron/Zinc chelators were tested to assess and document greater than additive (synergistic) apoptosis-related activity in controlled 72 hour cultures.
(§2) The primary assay for apoptosis-related loss of cell viability was the mitochondrial function assay [reduction of 3-(4,5-dimethylthiazol-2-yl)-5-(3-carboxymethoxyphenyl)-2-(4-sulfophenyl)-2H-tetrazolium (MTS)] using a MTS kit (Promega, Madison, Wis.). A minimum of 4 replicate wells per condition were studied and absorbance at […] of the solution in individual wells was determined with a multi-well plate reader. Data were analyzed by plotting the mean and SD of cell viability versus concentration of DIM, Iron/Zinc chelator or other growth inhibitors.
(§3) Using doses for each agent at or below the ID50 levels, synergistic, apoptosis-related, reductions in cell viability were documented for both combinations of DIM and Iron disrupting compounds and for combinations of DIM and Zinc disrupting compounds. Results showing percent reductions of cell viability using the MTS assay for individual agents, combined effects, and extent of synergism are summarized in the following tables and FIGS. 1-3.

[4] = cited from earlier work
C33A cells = assay: MTS mitochondrial function assay, loss of cell viability, 72 hour cultures; assay type: cell-based, human
Experimental: as §1, §2, §3

[5] = tested on: papillomavirus altered cervical cancer cell lines; conditions: cell culture; cited from earlier work
tumor tissue = assay: Ga-67 SPECT scan in patients with oropharyngeal squamous cell cancer; assay type: in vivo, human; conditions: 8 millicuries intravenous
Source text: In order to reduce radiation-related side effects use of both conventional radiation and Cyberknife radiosurgery (Accuray, Sunnyvale, Calif.) were employed together with intravenous and oral DIM and intravenous Ga-67 isotope and Gallium nitrate. This combined approach allowed reduction of the total radiation dose from 7000 cGy to 3500 cGy. On the first treatment day the patient underwent Computerized Tomography (CT) with intravenous omnipaque to enhance 3 dimensional definition of the tumor mass. This was followed by a Ga-67 SPECT scan involving administration of 8 millicuries of Gallium-67 Citrate isotope (Cardinal Health, Denver, Colo.).
On the first treatment day the patient, weighing 50 kg, underwent Computerized Tomography (CT) with intravenous omnipaque to enhance the 3 dimensional definition of the recurrent tumor mass. This was followed by a Ga-67 SPECT scan involving administration of 8 millicuries of Gallium-67 isotope (Cardinal Health, Denver, Colo.).

cervical dysplasia = conditions: treated for 3 months; cited from earlier work
[6] = tested on: virus infected skin cells (HIV-1, HSV-2); conditions: cited from earlier work

c1ccc(-c2ccccn2)nc1 [BIP, 2,2′-bypryidyl]
Logβ-Ga^II [1]: 7.7 | Logβ-Zn^II [2]: 13.2 | Concentrations shown to inhibit Vaccinia virus replication and ribonucleotide reductase (Vaccinia virus): 60 to 80 µM | Logβ-Fe^III [3]: 16.3

CCCC(=O)[O-].[Na+] [BU, butyric acid sodium salt]
BU Effect Alone (CaSki cells; BU 150 μM, Table IV): −15%

CC(=O)N(O)CCCCCNC(=O)CCC(=O)N(O)CCCCCNC(=O)CCC(=O)N(O)CCCCCN [DFO, Desferrioxamine]
Logβ-Ga^II [1]: 27.6 | Logβ-Zn^II [2]: 11.1 | Lipid Solubility [4]: Low | Logβ-Fe^III [3]: 30.5

c1ccc2c(Cc3c[nH]c4ccccc34)c[nH]c2c1 [DIM, 3,3′-diindolylmethane]
DIM Effect Alone (C33A cells; DIM 25 μM, reduction of cell viability): −8% | DIM Effect Alone (CaSki cells; DIM 50 μM, Table II): −26% | DIM Effect Alone (CaSki cells; DIM 75 μM, Table II): −46% | DIM Effect Alone (CaSki cells; DIM 75 uM, Table III): −19% | DIM Effect Alone (CaSki cells; DIM 75 μM, Table IV): −46% | DIM Alone 75 uM (CaSki cells; DIM 75 uM, Table V): −19% | DIM Effect Alone (CaSki cells; DIM 100 uM, Table III): −21% | Concentration required for activity (markers of apoptosis) [5]: 50 µM

O=C(O)CN(CCN(CC(=O)O)CC(=O)O)CC(=O)O [EDTA, ethylenediaminetetraacetic acid]
Logβ-Ga^II [1]: 21.0 | Logβ-Zn^II [2]: 16.5 | Logβ-Fe^III [3]: 25.1

O=C([O-])CC(O)(CC(=O)[O-])C(=O)[O-].[67Ga+3] [Gallium-67 Citrate]
Uptake of Gallium by the tumor tissue in the scan (tumor tissue): preferential uptake

OCc1c[nH]c2ccccc12 [I3C, indole-3-carbinol]
Women with partial improvement (cervical dysplasia): about 50%

Cc1c(O)c(=O)ccn1C [L1, 1,2-Dimethyl-3-hydroxypyrid-4-one]
Logβ-Ga^II [1]: 32.6 | Logβ-Zn^II [2]: 13.5 | Lipid Solubility [4]: Moderate | Logβ-Fe^III [3]: 37.2

O=C(O)c1ccccn1 [Picolinic acid, pyridine-2-carboxylic acid]
Logβ-Zn^II [2]: 12.9 | Lipid Solubility [4]: High | Pa Effect Alone (CaSki cells; Table III line with DIM 75 uM): −13% | Pa Effect Alone (CaSki cells; Table III line with DIM 100 uM): −13% | Concentration required in cell culture when used alone ([6]; U.S. Pat. No. 6,410,570): 3 mM | Concentration required for slowing of growth and diminished viability ([6]; virus infected skin cells): 3,000 micromolar | Logβ-Fe^III [3]: 12.8

COc1cc(C2Oc3cc([C@H]4Oc5cc(O)cc(O)c5C(=O)[C@@H]4O)ccc3OC2CO)ccc1O (some centres unmarked) [Silybin, 3,5,7,-trihydroxy-2-[3-(4-hydroxy-3-methoxyphenil)-2-hydroxymethyl-1,4-benxodioxan-6-il]-chronan-4-one]
SY Effect Alone (C33A cells; SY 150 μM): −54% | SY Effect Alone (CaSki cells; Table II line with DIM 50 μM): −4% | SY Effect Alone (CaSki cells; Table II line with DIM 75 μM): −8% | Sy Alone 150 uM (CaSki cells; Sy 150 uM, Table V): −5% | Logβ-Fe^III [3]: 41.5
